The NIST ThermoML archive (doi:10.1016/j.jct.2014.09.009)
± gives the expanded uncertainty stated by the source.

Assays:
[1] = 298.15 K; 101.33 kPa; Liquid; Vibrating tube method
[2] = refractive index (Na D-line) (dimensionless); details: 298.15 K; 101.33 kPa; Liquid; Standard Abbe refractometry

Compound	mass density [1]	refractive index [2]
COS(=O)(=O)[O-].Cn1cc[n+](C)c1 [1,3-dimethylimidazolium methylsulfate]	1327.3 ± 3.8 kg/m3	1.48276 ± 0.00069
CCCCn1cc[n+](C)c1.COS(=O)(=O)[O-] [1-butyl-3-methylimidazolium methyl sulfate]	1212.3 ± 2.5 kg/m3	1.47948 ± 0.00053
CCn1cc[n+](C)c1.COS(=O)(=O)[O-] [1-ethyl-3-methylimidazolium methylsulfate]	1277.4 ± 2.6 kg/m3	1.479 ± 0.0005

Second part, the compound after the results:

mass density [1]	refractive index [2]	Compound
745.2 ± 2.1 kg/m3	1.41992 ± 0.0004	CCCCCCCCCCCC [dodecane]
894.5 ± 2.1 kg/m3	1.36975 ± 0.00035	CCOC(C)=O [ethyl acetate]
780.9 ± 2.1 kg/m3	1.37499 ± 0.00035	CC(C)O [propan-2-ol]
785.1 ± 2.1 kg/m3	1.35932 ± 0.00035	CCO [ethanol]
